Calls of active or inactive are those of the source. No cut-off for these calls is given here.
Key:
Plasmodium falciparum [1] = test: Antimalarial activity against […] infected in human RBC assessed as inhibition of plasmodial growth at 1 uM by SYBR green dye based spectrofluorometric analysis relative to control; assay type: functional; conditions: 3D7, Erythrocyte
Plasmodium falciparum [2] = test: Antimalarial activity against […] infected in human RBC assessed as inhibition of plasmodial growth at 10 uM by SYBR green dye based spectrofluorometric analysis relative to control; assay type: functional; conditions: 3D7, Erythrocyte
Plasmodium falciparum [3] = test: Antiplasmodial activity against […] incubated for 90 hrs by SYBR green I dye based analysis; assay type: functional, organism-based; conditions: 3D7, 90 h
[4] = Cytotoxicity against human U-937 cells assessed as reduction in cell viability incubated for 24 hrs by MTT assay; assay type: toxicity, cell-based
[5] = Therapeutic index, ratio of CC50 for human HepG2 cells to IC50 for chloroquine-sensitive synchronized late stage trophozoite Plasmodium falciparum 3D7 infected in human RBC; assay type: toxicity; conditions: read-out: TI
Plasmodium falciparum [6] = test: Antimalarial activity against chloroquine-resistant Plasmodium falciparum RKL-9 infected in human RBC assessed as reduction of plasmodial growth by SYBR green dye based spectrofluorometric analysis; assay type: functional, organism-based
Plasmodium falciparum [7] = test: Induction of mitochondrial membrane depolarization in trophozoite stage Plasmodium falciparum 3D7 infected in human RBC assessed as increase in green fluorescence at IC50 concentration incubated for 3 hrs by JC-1 dye based fluorescence microscopic analysis; assay type: functional, organism-based
Plasmodium falciparum [8] = test: Synergistic antimalarial activity against synchronized ring stage Plasmodium falciparum 3D7 infected in human RBC assessed as mean fractional inhibitory concentration at 1:4 ratio of ART to compound incubated for 72 hrs by giemsa staining based flow cytometric analysis; assay type: functional
Erythrocyte = test: Hemolytic activity in human RBC assessed as hemolysis upto 5 uM incubated for 2 hrs; assay type: toxicity, cell-based
Plasmodium falciparum [9] = test: Induction of mitochondrial membrane depolarization in trophozoite stage Plasmodium falciparum 3D7 infected in human RBC assessed as decrease in red to green fluorescence ratio at IC50 concentration incubated for 3 hrs by JC-1 dye based fluorescence microscopic analysis; assay type: functional, organism-based
Plasmodium falciparum [10] = test: Antimalarial activity against chloroquine-resistant synchronized late stage trophozoite Plasmodium falciparum RKL-9 infected in human RBC assessed as inhibition of plasmodial growth by giemsa staining based analysis; assay type: functional, organism-based; conditions: RKL-9, Erythrocyte
[11] = Cytotoxicity against human HepG2 cells; assay type: toxicity, cell-based
Plasmodium falciparum [12] = test: Antiplasmodial activity against synchronized ring stage Plasmodium falciparum 3D7 infected in human RBC assessed as reduction in transformation into pyknotic trophozoites by measuring delay in ring maturation at IC50 concentration measured after 60 hrs by giemsa staining based light microscopic analysis; assay type: functional, organism-based
[13] = Cytotoxicity against […] cell upto 500 uM; assay type: toxicity, cell-based; conditions: human
Plasmodium falciparum [14] = test: Antimalarial activity against chloroquine-sensitive synchronized late stage trophozoite Plasmodium falciparum 3D7 infected in human RBC assessed as inhibition of plasmodial growth by giemsa staining based analysis; assay type: functional, organism-based; conditions: 3D7, Erythrocyte
Plasmodium berghei [15] = test: Antimalarial activity against Plasmodium berghei ANKA in BALB/c mouse injected with parasite infected erythrocytes assessed as decrease in parasite load at 30 mg/kg, ip administered daily for 7 days relative to control; assay type: functional; set-up: scale not given: the % may be the effect or the level left; conditions: time 7 day
Plasmodium berghei [16] = test: Antimalarial activity against Plasmodium berghei ANKA in BALB/c mouse injected with parasite infected erythrocytes assessed as […] mean survival time at 30 mg/kg, ip administered daily for 7 days and measured after 15 days; assay type: functional; conditions: time 15 day
Plasmodium falciparum [17] = test: Induction of mitochondrial membrane depolarization in trophozoite stage Plasmodium falciparum 3D7 infected in human RBC assessed as red to green fluorescence ratio at IC50 concentration incubated for 3 hrs by JC-1 dye based spectrofluorometric analysis (reference value: 6.96+/-0.94); assay type: functional
Plasmodium berghei [18] = test: Antimalarial activity against Plasmodium berghei ANKA in BALB/c mouse injected with parasite infected erythrocytes assessed as reduction in parasitemia at 30 mg/kg, ip administered daily for 7 days and measured after 15 days; assay type: functional, organism-based; conditions: time 15.0 day
Plasmodium falciparum [19] = test: Synergistic antimalarial activity against synchronized ring stage Plasmodium falciparum 3D7 infected in human RBC assessed as mean fractional inhibitory concentration at 1:1 ratio of ART to compound incubated for 72 hrs by giemsa staining based flow cytometric analysis; assay type: functional

Cc1ccc2c(c1)C(=O)N([C@H](CC(C)C)c1nc3ccccc3n1Cc1c[nH]nn1)C2=O
inhibition at 1 µM (Plasmodium falciparum [1]): -64%
inhibition at 10 µM (Plasmodium falciparum [2]): 71%

Cc1ccc(-n2cc(Cn3c([C@@H](CC(C)C)N4C(=O)c5ccc(C)cc5C4=O)nc4ccccc43)nn2)cc1
inhibition at 1 µM (Plasmodium falciparum [1]): -8.63%
inhibition at 10 µM (Plasmodium falciparum [2]): 68.9%

CC(C)CC(c1nc2ccccc2n1Cc1cn(-c2ccccc2)nn1)N1C(=O)c2ccccc2C1=O (stereo not drawn)
IC50 (Plasmodium falciparum [3]): 0.9 µM
CC50 at 24 h [4]: 0.91 µM

CC(C)C[C@H](c1nc2ccccc2n1Cc1cn(-c2ccc(C(F)(F)F)cc2)nn1)N1C(=O)c2ccccc2C1=O
inhibition at 1 µM (Plasmodium falciparum [1]): -53%
inhibition at 10 µM (Plasmodium falciparum [2]): 88%

CC(C)C(c1nc2ccccc2n1Cc1cn(-c2ccc(F)cc2)nn1)N1C(=O)c2ccccc2C1=O (stereo not drawn)
IC50 (Plasmodium falciparum [3]): 3.5 µM
CC50 at 24 h [4]: 0.78 µM

Cc1ccc2c(c1)C(=O)N([C@H](CC(C)C)c1nc3ccccc3n1Cc1cn(-c3ccc(F)cc3)nn1)C2=O
inhibition at 1 µM (Plasmodium falciparum [1]): 0.3%
inhibition at 10 µM (Plasmodium falciparum [2]): 46%

CCC(C)[C@H](c1nc2ccccc2n1Cc1cn(Cc2ccccc2)nn1)N1C(=O)c2ccccc2C1=O (stereo partly drawn)
inhibition at 1 µM (Plasmodium falciparum [1]): 35%
selectivity ratio [5]: 123
Activity (Plasmodium falciparum [6]): Dose dependent effect
Activity (Plasmodium falciparum [7]): Active
inhibition at 10 µM (Plasmodium falciparum [2]): 66%
FIC (Plasmodium falciparum [8]): 0.67
Activity (Erythrocyte): Non-Toxic
Activity (Plasmodium falciparum [9]): Active
IC50 (Plasmodium falciparum [10]): 1.88 µM
IC50 [11]: > 100 µM
Activity (Plasmodium falciparum [12]): Active
Activity [13]: Non-Toxic
IC50 (Plasmodium falciparum [14]): 0.81 µM

CCC(C)[C@H](c1nc2ccccc2n1Cc1cn(-c2ccccc2F)nn1)N1C(=O)c2ccc(C)cc2C1=O (stereo partly drawn)
inhibition at 1 µM (Plasmodium falciparum [1]): -23%
inhibition at 10 µM (Plasmodium falciparum [2]): 91%

CCC(C)C(c1nc2ccccc2n1Cc1cn(-c2ccc(F)cc2)nn1)N1C(=O)c2ccccc2C1=O (stereo not drawn)
IC50 (Plasmodium falciparum [3]): 0.9 µM
CC50 at 24 h [4]: 28.8 µM

CC(C)[C@H](c1nc2ccccc2n1Cc1cn(-c2ccc(C(F)(F)F)cc2)nn1)N1C(=O)c2ccccc2C1=O
inhibition at 1 µM (Plasmodium falciparum [1]): 22%
Activity (Plasmodium berghei [15]): 3.9%
selectivity ratio [5]: 43
Activity (Plasmodium falciparum [6]): Dose dependent effect
Activity (Plasmodium falciparum [7]): Active
inhibition at 10 µM (Plasmodium falciparum [2]): 75%
Activity (Erythrocyte): Non-Toxic
Activity (Plasmodium falciparum [9]): Active
IC50 (Plasmodium falciparum [10]): 3.92 µM
MST (Plasmodium berghei [16]): 10.47 days
IC50 [11]: > 100 µM
Activity (Plasmodium falciparum [17]): 5.06
Activity (Plasmodium falciparum [12]): Active
Activity (Plasmodium berghei [18]): Active
Activity [13]: Non-Toxic
IC50 (Plasmodium falciparum [14]): 2.3 µM
FIC (Plasmodium falciparum [19]): 0.93

CC(C)[C@H](c1nc2ccccc2n1Cc1cn(-c2c(F)cccc2F)nn1)N1C(=O)c2ccccc2C1=O
inhibition at 1 µM (Plasmodium falciparum [1]): -26%
inhibition at 10 µM (Plasmodium falciparum [2]): 91%

Reference: ChEMBL document CHEMBL5338711, “Designing and development of phthalimides as potent anti-tubulin hybrid molecules against malaria” (Eur J Med Chem, 2022)
